{"source": "patent US11696903B2", "about": "“Compounds and methods for scavenging dicarbonyl electrophiles” (VANDERBILT UNIVERSITY, priority 2019, dated 2023)", "key": {"[1]": {"tested_on": "H. pylori", "assay": "Hp gastric colonization quantified by culture", "type": "in vivo, Helicobacter pylori", "conditions": "INS-GAS mice, EtSA treatment", "experimental": "(§1) As discussed further in the Examples, the human gastric epithelial cell line AGS was infected with Hp PMSS1±10 mM EtSA. FVB/N insulin-gastrin (INS-GAS) mice and Mongolian gerbils were infected for 8 wk with Hp PMSS1 and 7.13, respectively; EtSA (0.75% in water) was given to animals beginning one wk post-infection. Lys-LG adducts, a marker of electrophile reactions, and EtSA were quantified by LC/EST/MS/MS. Histology was analyzed on H&E staining. DNA damage was evaluated by pH2AX staining. Hp colonization was quantified by culture. Mucosal immune responses were determined by RNA profiling and by Luminex assay. Mice were imaged using PET/CT with ^18F-FDG (inflammation marker) and ^18F—NaF (tumor marker).\nThe effect of a scavenger of levuglandins and other dicarbonyls was investigated in transgenic INS-GAS mice, which have high circulating gastrin levels and develop atrophic gastritis, and dysplasia and carcinoma with H. pylori infection. Mice were infected with H. pylori, and then EtSA was administered in drinking water, starting 7 days after infection. After 8 weeks, EtSA levels were measured in the gastric tissues of uninfected and infected mice receiving this compound (FIG. 16A). […] There was no dysplasia or carcinoma in uninfected mice (FIG. 16D)."}, "[2]": {"tested_on": "lysyl-LG adducts", "assay": "Lysyl-LG adducts in gastric tissues of H. pylori-infected mice (LC/ESI/MS/MS)", "type": "in vivo", "conditions": "EtSA 0.75% in water from one wk post-infection, 8 wk infection", "experimental": "(§2) FIGS. 15A, 15B, and 15C are graphs showing C57BL/6 (A) or INS-GAS mice (B) were infected for 8 weeks with H. pylori PMSS1. Lysyl-LG adducts were measured in the gastric tissues by LC/ESI/MS/MS. *P<0.05. (C) Lysyl-LG adducts concentration was determined in AGS cells infected (plain bars) or not (open bars) with H. pylori PMSS1 for 24 h, in the presence or absence of EtSA. *P<0.05 vs. uninfected cells. § P<0.05 vs. infected cells without EtSA.\nFIG. 17 is a graph showing reduction in the concentration of lysyl-levuglandin adducts in the stomachs of H. pylori infected mice treated with 2-hydroxybenzylamine for 8 weeks.\nas §1, with “marker). […]” for “marker).”"}, "[3]": {"tested_on": "Mongolian gerbils infected with Hp 7.13", "assay": "Gastric cancer development in Mongolian gerbils infected with Hp 7.13", "type": "in vivo", "conditions": "gerbils infected with Hp 7.13, EtSA 0.75% in water", "experimental": "as §1"}, "[4]": {"tested_on": "Lysyl-LG adducts in AGS cells", "assay": "Lysyl-LG adducts in AGS cells infected with H. pylori PMSS1", "type": "cell-based, human", "experimental": "as §2\nas §1, with “As discussed further in the Examples, the human gastric epithelial cell line AGS was infected with Hp PMSS1±10 mM EtSA.” left out\nTo further determine whether ethylsalicylamine (EtSA) prevents the formation of bifunctional electrophiles during H. pylori infection, the […] were treated or not with EtSA 30 min prior to the infection."}}, "note": "“Also recorded” adds a separate entry of the source.", "data": [{"compound": "CCc1ccc(O)c(CN)c1", "note": "[EtHOBA, 5-ethyl-2-hydroxybenzylamine]", "values": [{"measurement": "Hp colonization", "setting": "[1]", "value": "not reduced; also recorded: not affected"}, {"measurement": "Lys-LG adducts in infected mice", "setting": "[2]", "value": "completely inhibited"}, {"measurement": "frequency of gastric cancer development", "setting": "[3]", "value": "reduced"}, {"measurement": "Lys-LG adduct levels", "setting": "[4]; AGS cells infected with Hp PMSS1 ± 10 mM EtSA", "value": "inhibited"}, {"measurement": "lysyl-LG adduct concentration", "setting": "[4]; H. pylori-infected AGS cells, 24 h, 10 μM EtSA", "value": "completely attenuated"}]}]}
